“Also recorded” adds a separate entry of the source.
How the values were obtained:
B. subtilis biofilms = assay: B. subtilis biofilm stability / maintenance in vitro; assay type: cell-based; settings: in vitro and in vivo, specific environmental conditions such as iron starvation
Experimental: Shown are biofilms of treated and untreated B. subtilis biofilms.
Strains and Media All experiments were performed with B. subtilis NCBI3610 and its derivatives. Assays were carried out with the biofilm-inducing medium, MSgg: 5 mM potassium phosphate, 100 mM MOPS (pH 7), 2 mM MgCl2, 50 μM MnCl2, 1 μM ZnCl2, 2 μM thiamine, 0.5% glycerol, 0.5% glutamate, 50 μg/ml tryptophan, 50 μg/mlphenylalanine 50 μg/ml threonine, 700 μM CaCl2, and 50 μM (for growth assays) or 125 μM (for biofilm assays) FeCl3^1. A solid MSgg medium was obtained by adding Bacto agar (Difco) to a final concentration of 1.5%. When necessary, selective medium was prepared with LB-agar or LB broth, supplemented with: 100 μg/ml ampicillin (amp) (AG Scientific), or 10 μg/ml kanamycin (kan) (AG Scientific), or 10 μg/ml chloramphenicol (cam) (Amresco), or 10 μg/ml tetracycline (tet) (Amresco), or 100 μg/ml spectinomycin (spec) (Tivan Biotech), or 1 μg/mlerythromycin (erm) (Amresco)+25 μg/ml lincomycin (linc) (Sigma Aldrich).

[1] = tested on: P. syringae strain DC3000 pv tomato; assay: Bioprotection of tomato plants by B. subtilis against pseudomonas syringae; assay type: in vivo; settings: 5 μM RID with 1000 B. subtilis cells; 100 or 10,000 pathogen cells
Experimental: FIGS. 18A-18B: Purified RID improved the bioprotection versus pseudomonas syringae achieved by Bacillus. Bacillus strain B. subtilis 3610 (B.S) was used. The bacterial strain was maintained on LB plates. 1000 cells either applied or non-applied with 5 μM of RID were added to tomato plants grown on agrophonic beads. Plants were incubated at 28±2° C. for 15 days. P. syringae strain DC3000 pv tomato (P.S) culture was grown in LB at 37° C. to OD600=0.2 to 0.3 (3*10^8 cells per ml) and diluted to 100 cells (FIG. 18A) 10,000 (FIG. 18B) cells retrospectively (w/v) into the plant media. Plants were further incubated at 28±2° C. for 10 days and the growth of the pathogen was measured and compared with the control. Three replications were maintained for each assay. SD represents the average of three independent experiments.
Bacillus strain B. subtilis 3610 (B.S) was maintained on LB plates. 1000 cells of B.S. with or without the addition of 5 μM of RID were added to tomato plants grown on agrophonic beads. Plants were incubated at 28±2° C. for 15 days.
P. syringae strain DC3000 pv tomato (P.S) was grown in LB at 37° C. to OD600=0.2 to 0.3 (3*10^8 cells per ml) and diluted to 10,000 cells retrospectively (w/v) into the plant media. Plants were further incubated at 28±2° C. for 10 days and the growth ofthe pathogen was measured and compared with the control. […]

rhyzoctonia solani = assay: Bioprotection of tomato plants by B. subtilis against rhyzoctonia solani; assay type: in vivo; settings: RID with B. subtilis
Experimental: ISR assay. Arabidopsis thaliana or Microtome tomato seedlings were grown on NITCH-agar for 10 days. Then each seedling was transferred to separate solid MSgg plate. In order to test the effects of either treated or untreated B. subtilis on the Induced systemic resistance (ISR), bacterial cells were inoculated aside to the root (as mentioned above) and incubated at 23° C. for five days. Alternatively and as indicated in the corresponding figure legend, we inoculated the bacterial cells directly on the root. Then the first leaf was infected by puncturing by needle and inoculating with the necrosis-causing pathogens, Pseudomonas syringae DC3000 or rhyzoctonia solani (Kuhn). Five days after infection with P. syringae, plants were further analyzed.
Tomato infections (FIGS. 18A, 18B and 19).

P. syringae = assay: Bioprotection of Arabidopsis thaliana by B. subtilis against pseudomonas syringae; assay type: in vivo; settings: 5 μM purified RID with 1000 B. subtilis cells, 100 or 10,000 pathogen cells
Experimental: (§1) FIG. 19: Purified RID improved the bioprotection versus pseudomonas syringae and rhyzoctonia solani achieved by Bacillus. We used Bacillus strain B. subtilis 3610 (B.S). The bacterial strain was maintained on LB plates. 1000 cells either applied or non-applied with 5 μM of purified RID were added to Arabidopsis thaliana plants grown on MS solid media. Plants were incubated at 26±2° C. for 5 days. P. syringae (P.S) or R. solani (R.S) were grown in TSB at 37° C. to OD600=0.2 to 0.3 (3*10^8 cells per ml) and diluted to 100 cells, or 10,000 cells retrospectively (w/v) into the plant media. Plants were further incubated at 28±2° C. for 5 days and the growth of the pathogen was measured and compared with the control. Three replications were maintained for each assay. SD represents the average of three independent experiments.
(§2) Bacillus strain B. subtilis 3610 (B.S) was maintained on LB plates. 1000 cells with or without 5 μM of purified RID were added to Arabidopsis thaliana plants grown on MS solid media. Plants were incubated at 26±2° C. for 5 days. P. syringae (P.S) or R. solani (R.S) were grown in TSB at 37° C. to OD600=0.2 to 0.3 (3*10^8 cells per ml) and diluted to 100 cells, or 10,000 cells retrospectively (w/v) into the plant media. Plants were further incubated at 28±2° C. for 5 days and the growth of the pathogen was measured and compared with the control. […]

R. solani = assay: Bioprotection of Arabidopsis thaliana by B. subtilis against rhyzoctonia solani; assay type: in vivo; settings: 5 μM purified RID with 1000 B. subtilis cells, 100 or 10,000 pathogen cells
Experimental: as §1, §2

[2] = tested on: B. subtilis 3610 Δ yclQ mutant biofilms; assay: Biofilm (pellicle) development of B. subtilis strain defective in iron uptake; assay type: cell-based; settings: Δ yclQ mutant pellicles with or without purified RID
Excerpt: Biofilms grown in the presence and absence of RID in B. subtilis 3610 and its derivate (Δ yclQ) mutant in iron uptake pathways (Zawadzka et al., 2009). Untreated pellicles are shown in the top panel. Pellicles applied with purified RID are shown below.

NCCCCNC(=O)/C=C/c1ccc(O)c(O)c1 [RID, caffeoyl putrescine]
disassembly of B. subtilis biofilms (B. subtilis biofilms): blocks the disassembly of B. subtilis biofilms in vitro and in vivo | B. subtilis-mediated protection of tomato plants from pseudomonas syringae pv. Tomato [1]: enhanced the protective effects of Bacillus subtilis on tomato plant mortality; also recorded: improved significantly the duration of protection achieved by Bacillus subtilis and the resistance to high inoculum of infection | B. subtilis-mediated protection of tomato plants from rhyzoctonia solani (rhyzoctonia solani): enhanced the protective effects of Bacillus subtilis on tomato plant mortality | B. subtilis-mediated protection of Arabidopsis (Brassicaceae) from pseudomonas syringae (P. syringae): improved significantly protection achieved by Bacillus subtilis | B. subtilis-mediated protection of Arabidopsis (Brassicaceae) from pseudomonas syringae (P. syringae; listed as purified RID): significantly improve the protection of Brassicaceae plants | B. subtilis-mediated protection of Arabidopsis (Brassicaceae) from rhyzoctonia solani (R. solani): improved significantly protection achieved by Bacillus subtilis | B. subtilis-mediated protection of Arabidopsis (Brassicaceae) from rhyzoctonia solani (R. solani; listed as purified RID): significantly improve the protection of Brassicaceae plants | biofilm development of iron-uptake defective B. subtilis [2]: compensated for the biofilm defect; also recorded: can promote the development of biofilms

Reference: patent publication US20210144999A1, “COMPOSITIONS COMPRISING HYDROXYCINNAMIC ACID AND RELATED CONJUGATES, ANALOGUES AND DERIVATIVES, AND METHODS OF USE THEREOF” (YEDA RESEARCH AND DEVELOPMENT CO. LTD., priority 2017, published 2021)
